Measurements: ChEMBL document CHEMBL1201862, “PubChem BioAssay data set” (2004)
Calls of active or inactive are those of the source.

What was measured:
[1] = molecular target: T1, Adenosylmethionine-8-amino-7-oxononanoate aminotransferase (Mycobacterium tuberculosis, UniProt P9WQ81); assay: Mycobacterium tuberculosis BioA enzyme inhibitor Measured in Biochemical System Using Plate Reader - 2163-02_Inhibitor_Dose_CherryPick_Activity.; format: functional, Mycobacterium tuberculosis UT205
T1 sequence (P9WQ81 whole entry): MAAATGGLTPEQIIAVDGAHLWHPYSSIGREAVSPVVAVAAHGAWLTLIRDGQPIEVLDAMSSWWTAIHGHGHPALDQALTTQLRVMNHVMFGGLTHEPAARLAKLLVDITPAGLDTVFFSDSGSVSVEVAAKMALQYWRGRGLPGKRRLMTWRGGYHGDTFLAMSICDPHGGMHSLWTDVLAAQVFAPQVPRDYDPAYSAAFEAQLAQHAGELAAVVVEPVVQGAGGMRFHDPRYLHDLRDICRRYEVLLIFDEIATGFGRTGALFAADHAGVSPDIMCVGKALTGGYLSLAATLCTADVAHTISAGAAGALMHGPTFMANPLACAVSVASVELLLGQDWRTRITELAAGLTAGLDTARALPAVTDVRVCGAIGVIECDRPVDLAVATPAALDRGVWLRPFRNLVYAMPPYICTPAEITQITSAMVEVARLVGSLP

[2] = molecular target: T2, Fructose-bisphosphate aldolase (Mycobacterium tuberculosis, UniProt P9WQA3); assay: Fluorescence-based biochemical high throughput dose response assay for inhibitors of the fructose-bisphosphate aldolase (FBA) of M. tuberculosis.; format: functional
T2 sequence (P9WQA3 whole entry): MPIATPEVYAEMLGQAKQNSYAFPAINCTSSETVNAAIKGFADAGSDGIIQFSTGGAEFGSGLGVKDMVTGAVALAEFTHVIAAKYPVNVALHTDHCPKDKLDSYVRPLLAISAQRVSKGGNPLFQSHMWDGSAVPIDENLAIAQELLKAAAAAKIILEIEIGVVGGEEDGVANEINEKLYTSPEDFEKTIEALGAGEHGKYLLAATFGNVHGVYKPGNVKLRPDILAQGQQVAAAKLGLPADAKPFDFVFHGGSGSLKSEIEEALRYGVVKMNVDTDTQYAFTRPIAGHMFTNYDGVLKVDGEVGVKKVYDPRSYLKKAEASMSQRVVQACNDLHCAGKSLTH

Protein skinhead-1 = molecular target: T3, Protein skinhead-1 (Caenorhabditis elegans, UniProt P34707); format: functional
T3 sequence (P34707 whole entry): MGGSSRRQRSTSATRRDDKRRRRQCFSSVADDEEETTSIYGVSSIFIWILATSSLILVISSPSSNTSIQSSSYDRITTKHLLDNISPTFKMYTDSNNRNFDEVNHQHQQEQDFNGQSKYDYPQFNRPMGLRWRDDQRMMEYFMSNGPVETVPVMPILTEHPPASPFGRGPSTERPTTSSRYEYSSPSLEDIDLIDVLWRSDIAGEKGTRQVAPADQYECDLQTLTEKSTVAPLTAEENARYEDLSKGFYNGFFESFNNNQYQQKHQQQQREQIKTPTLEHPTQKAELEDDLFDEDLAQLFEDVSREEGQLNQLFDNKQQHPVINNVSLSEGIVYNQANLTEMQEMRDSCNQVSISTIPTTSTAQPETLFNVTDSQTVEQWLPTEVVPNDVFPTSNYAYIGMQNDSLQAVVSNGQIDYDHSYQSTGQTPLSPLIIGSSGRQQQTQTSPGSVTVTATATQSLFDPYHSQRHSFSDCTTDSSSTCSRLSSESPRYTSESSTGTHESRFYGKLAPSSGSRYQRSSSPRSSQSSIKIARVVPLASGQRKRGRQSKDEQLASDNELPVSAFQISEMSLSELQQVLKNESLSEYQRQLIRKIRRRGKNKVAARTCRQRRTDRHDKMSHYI

[3] = molecular target: T4, DNA repair and recombination protein RAD54-like (Homo sapiens, UniProt Q92698); assay: inhibitors of human RAD54 branch migration, confirmation, biochemical, fluorescence, cherry-picked samples, dose series (AID 651657); format: functional
T4 sequence (Q92698 whole entry): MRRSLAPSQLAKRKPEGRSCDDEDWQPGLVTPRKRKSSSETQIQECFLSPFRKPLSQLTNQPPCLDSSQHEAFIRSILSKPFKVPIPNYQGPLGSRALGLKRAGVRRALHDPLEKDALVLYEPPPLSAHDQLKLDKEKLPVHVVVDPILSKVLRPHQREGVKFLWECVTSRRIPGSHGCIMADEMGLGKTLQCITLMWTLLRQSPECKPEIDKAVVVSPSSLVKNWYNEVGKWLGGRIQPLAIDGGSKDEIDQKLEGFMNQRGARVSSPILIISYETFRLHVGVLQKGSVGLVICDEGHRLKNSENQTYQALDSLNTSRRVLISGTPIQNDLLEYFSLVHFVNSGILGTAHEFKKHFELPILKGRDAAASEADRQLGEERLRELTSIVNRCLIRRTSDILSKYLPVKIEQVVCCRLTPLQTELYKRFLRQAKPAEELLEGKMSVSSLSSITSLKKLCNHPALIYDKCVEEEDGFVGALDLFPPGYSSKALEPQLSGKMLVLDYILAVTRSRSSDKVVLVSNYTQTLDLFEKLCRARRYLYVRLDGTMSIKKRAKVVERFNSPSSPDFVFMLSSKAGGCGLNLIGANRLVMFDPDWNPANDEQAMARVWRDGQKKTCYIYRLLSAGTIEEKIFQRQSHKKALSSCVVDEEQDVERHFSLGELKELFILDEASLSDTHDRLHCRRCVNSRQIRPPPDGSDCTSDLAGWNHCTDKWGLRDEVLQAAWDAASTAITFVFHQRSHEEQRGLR

Cryptococcus neoformans = assay: PubChem AID 686997; format: functional, organism-based; settings: Cryptococcus neoformans
[4] = molecular target: T5, Corticotropin-releasing factor receptor 2/Corticotropin-releasing factor-binding protein (Homo sapiens, UniProt P24387+Q13324); assay: activators of CRF receptor 2 with binding protein – uHTS hits, confirmation (AID 602473); format: functional; settings: read-out: EC50_Mean
T5 sequence (Q13324 whole entry): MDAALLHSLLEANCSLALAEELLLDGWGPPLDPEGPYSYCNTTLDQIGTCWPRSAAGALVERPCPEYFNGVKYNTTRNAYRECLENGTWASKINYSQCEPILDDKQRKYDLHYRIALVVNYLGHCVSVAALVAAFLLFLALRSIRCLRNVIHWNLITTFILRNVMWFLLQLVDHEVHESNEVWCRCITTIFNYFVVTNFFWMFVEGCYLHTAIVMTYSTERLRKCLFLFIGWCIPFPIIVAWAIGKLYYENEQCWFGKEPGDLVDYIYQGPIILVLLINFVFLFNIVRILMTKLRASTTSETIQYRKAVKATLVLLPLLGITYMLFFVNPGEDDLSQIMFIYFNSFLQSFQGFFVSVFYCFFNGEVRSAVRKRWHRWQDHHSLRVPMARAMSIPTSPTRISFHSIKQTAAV
T5 sequence (P24387 whole entry): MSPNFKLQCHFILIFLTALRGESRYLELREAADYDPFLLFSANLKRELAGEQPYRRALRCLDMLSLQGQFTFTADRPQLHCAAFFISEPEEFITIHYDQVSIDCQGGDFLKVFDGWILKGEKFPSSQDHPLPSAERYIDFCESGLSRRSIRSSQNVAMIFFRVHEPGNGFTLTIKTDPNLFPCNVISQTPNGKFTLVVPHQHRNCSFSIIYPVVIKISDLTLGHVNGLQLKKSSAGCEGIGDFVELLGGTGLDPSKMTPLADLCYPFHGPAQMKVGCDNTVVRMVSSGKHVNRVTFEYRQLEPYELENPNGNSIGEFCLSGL

[5] = CRF-BP/CRF-R2 complex antagonists, dose response, cell-based, uHTS hits, 384-well (AID 651639); format: functional, Homo sapiens; settings: read-out: IC50_Mean
[6] = molecular target: T5, Corticotropin-releasing factor receptor 2/Corticotropin-releasing factor-binding protein; assay: Dose Response confirmation of uHTS hits for small molecule antagonists of the CRF-binding protein and CRF-R2 receptor complex.; format: functional; settings: read-out: IC50_Mean
[7] = molecular target: T6, Long-chain-fatty-acid--AMP ligase FadD28 (Mycobacterium tuberculosis, UniProt P9WQ59); assay: Fluorescence polarization aasay to screen for inhibitors that compete for the binding of FadD28 to a bisubstrate Measured in Biochemical System Using Plate Reader - 2147-01_Inhibitor_Dose_CherryPick_Activity.; format: functional, Mycobacterium tuberculosis H37Rv
T6 sequence (P9WQ59 whole entry): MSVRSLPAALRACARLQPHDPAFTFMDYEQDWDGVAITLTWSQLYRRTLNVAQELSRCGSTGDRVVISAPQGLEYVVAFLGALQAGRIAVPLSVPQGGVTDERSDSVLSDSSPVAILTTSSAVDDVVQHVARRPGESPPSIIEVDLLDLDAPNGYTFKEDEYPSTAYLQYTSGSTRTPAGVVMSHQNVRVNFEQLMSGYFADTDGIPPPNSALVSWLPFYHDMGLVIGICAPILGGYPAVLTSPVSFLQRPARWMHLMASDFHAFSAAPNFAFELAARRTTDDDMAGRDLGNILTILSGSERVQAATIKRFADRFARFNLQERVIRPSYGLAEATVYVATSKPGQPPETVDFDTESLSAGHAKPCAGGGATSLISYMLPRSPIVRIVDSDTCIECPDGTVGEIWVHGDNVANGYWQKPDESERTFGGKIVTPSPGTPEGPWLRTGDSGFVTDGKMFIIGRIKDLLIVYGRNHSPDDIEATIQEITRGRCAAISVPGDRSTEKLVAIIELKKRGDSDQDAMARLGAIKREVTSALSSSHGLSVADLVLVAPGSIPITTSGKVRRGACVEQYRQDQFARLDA

[8] = molecular target: Heat shock protein HSP 90-alpha (Homo sapiens, UniProt P07900); format: functional, organism-based
[9] = molecular target: T7, Sentrin-specific protease 1 (Homo sapiens, UniProt Q9P0U3); assay: Dose response confirmation of small molecule inhibitors of the catalytic domain of the SUMO protease, SENP1 in a FRET assay.; format: functional; settings: read-out: IC50_Mean
T7 sequence (Q9P0U3 whole entry): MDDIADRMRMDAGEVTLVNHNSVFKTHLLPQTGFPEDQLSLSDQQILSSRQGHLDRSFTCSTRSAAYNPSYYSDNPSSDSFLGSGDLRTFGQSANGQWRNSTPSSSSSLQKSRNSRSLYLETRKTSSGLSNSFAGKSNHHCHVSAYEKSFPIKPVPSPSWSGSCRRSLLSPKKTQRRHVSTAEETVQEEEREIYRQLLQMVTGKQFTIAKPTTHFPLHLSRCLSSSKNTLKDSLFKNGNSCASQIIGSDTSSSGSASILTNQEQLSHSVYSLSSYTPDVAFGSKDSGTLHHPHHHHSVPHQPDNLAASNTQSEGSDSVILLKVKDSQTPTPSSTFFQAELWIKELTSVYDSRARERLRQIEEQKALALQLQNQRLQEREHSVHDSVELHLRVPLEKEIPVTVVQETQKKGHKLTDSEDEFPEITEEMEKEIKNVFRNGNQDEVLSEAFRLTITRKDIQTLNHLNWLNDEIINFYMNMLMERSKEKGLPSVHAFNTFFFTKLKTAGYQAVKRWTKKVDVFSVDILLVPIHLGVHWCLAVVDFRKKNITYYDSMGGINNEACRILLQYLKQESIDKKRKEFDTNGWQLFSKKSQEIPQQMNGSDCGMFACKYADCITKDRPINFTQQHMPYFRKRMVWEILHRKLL

[10] = molecular target: T7, Sentrin-specific protease 1; assay: potency of human SENP1 inhibitors, dose response, biochemical, kinetic FRET (AID 651697); format: functional; settings: read-out: IC50_Mean
[11] = molecular target: T8, Mannose-6-phosphate isomerase (Homo sapiens, UniProt P34949); assay: human PMI inhibitors, high substrate, primary screen, biochemical, fluorescence intensity, high mannose 6-phosphate (AID 1220)
T8 sequence (P34949 whole entry): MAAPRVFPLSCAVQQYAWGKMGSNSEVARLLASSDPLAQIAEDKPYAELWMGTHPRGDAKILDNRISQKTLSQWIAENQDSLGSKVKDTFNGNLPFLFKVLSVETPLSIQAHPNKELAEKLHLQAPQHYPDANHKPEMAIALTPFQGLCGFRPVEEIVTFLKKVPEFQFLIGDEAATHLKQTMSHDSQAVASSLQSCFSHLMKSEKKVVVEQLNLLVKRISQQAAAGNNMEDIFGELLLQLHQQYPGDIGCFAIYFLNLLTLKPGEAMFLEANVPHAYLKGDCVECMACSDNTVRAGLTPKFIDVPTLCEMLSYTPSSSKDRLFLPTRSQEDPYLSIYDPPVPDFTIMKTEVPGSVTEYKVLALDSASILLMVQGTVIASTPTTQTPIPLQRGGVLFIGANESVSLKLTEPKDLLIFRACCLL

Cn1nnc2cc(C(=O)Nc3cccnc3)ccc21
AC50 [1]: 4.17 µM (active)

CC(C)CC(C(=O)Oc1ccc2c3c(c(=O)oc2c1)CCC3)N1C(=O)c2ccccc2C1=O (configuration not stated)
IC50 [2]: 1.27 µM (active) | IC50 (Protein skinhead-1): > 100 µM (inactive)

Nc1nnc(/C=C/c2ccccc2Cl)s1
IC50 [2]: 1.59 µM (active)

CCOC(=O)c1c(C)n(C)c2ccc(OCC(O)CN3CCN(C)CC3)cc12 (configuration not stated)
AC50 [3]: 38.9 µM (active)

Cc1cc(C)c2nc(N3CCN(C(=O)c4cccs4)CC3)sc2c1
AC50 (Cryptococcus neoformans): > 70 µM (inactive)

CN(Cc1ccc([N+](=O)[O-])cc1)c1ccccc1
EC50 [4]: > 53 µM (inactive) | IC50 [5]: 7.06 µM (active) | IC50 [6]: 2.92 µM (active) | AC50 [7]: > 100 µM (inactive)

Oc1ccc(C=NN=C2c3ccccc3-c3ccccc32)c(O)c1
AC50 [8]: 12.1 µM (active) | IC50 [9]: 6.06 µM (active) | IC50 [10]: 12.5 µM (active)

Oc1nc(N2CCN(Cc3ccc4c(c3)OCO4)CC2)nc2c1CCCC2
AC50 [1]: 0.921 µM (active)

C/C=C/c1ccc2c(c1)O[C@@H](CN(C)C(=O)Nc1ccccc1)[C@H](C)CN([C@H](C)CO)S2(=O)=O
AC50 [1]: 5.6 µM (active)

CSc1nc(SCC(N)=O)c2c3c(sc2n1)CN(C)CC3
AC50 [3]: 17.2 µM (active)

Cc1ccc(-c2csc3nc(-c4ccncc4)[nH]c(=O)c23)cc1
IC50 [9]: 62 µM (inactive) | IC50 [10]: 69.3 µM (inactive)

Oc1ccccc1Oc1c(F)c(F)nc(N2CCCC2)c1F
IC50 [11]: > 50 µM (not active) | AC50 [7]: 42.5 µM (active)

CCCN(CCC)C(=O)Cn1c(=O)c2sccc2n2c(=S)sc(-c3ccccc3)c12
IC50 [9]: 12.6 µM (active) | IC50 [10]: 73.8 µM (inactive)
